Laboratory results from PubChem BioAssay (NCI).
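Compound exposure: 48 hours, 5 concentrations, 96-well plates. GI50: concentration for 50% inhibition of growth. TGI is the concentration that stops growth completely.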

Legend:
Assay in all cases: NCI tumour cell line growth inhibition, 48 h
[1] = test system: SF-295 CNS
[2] = test system: A549 NSCLC
[3] = test system: T-47D breast
[4] = test system: UACC-257 melanoma
[5] = test system: OVCAR-3 ovarian
[6] = test system: SN12C renal
[7] = test system: IGROV1 ovarian
[8] = test system: COLO 205 colon
[9] = test system: SF-268 CNS
[10] = test system: NCI-H522 lung

SMILES	GI50 [1] [µM]	TGI [1] [µM]	GI50 [2] [µM]	TGI [2] [µM]	GI50 [3] [µM]	TGI [3] [µM]	GI50 [4] [µM]	TGI [4] [µM]	GI50 [5] [µM]	TGI [5] [µM]	GI50 [6] [µM]	TGI [6] [µM]	GI50 [7] [µM]	TGI [7] [µM]	GI50 [8] [µM]	TGI [8] [µM]	GI50 [9] [µM]	TGI [9] [µM]	TGI [10] [µM]	GI50 [10] [µM]
Cc1cccc(Cc2cnc(NC(=O)/C=C/c3ccco3)s2)c1	0.0437	> 100	0.0591	> 100	0.033	> 100	> 100	> 100	0.0312	0.0914	0.073	> 100	0.0712	> 100	0.0438	1.23	0.181	> 100		
N#CC(N)(C(=O)C(=O)NCCCNC(=O)C(=O)C(N)(C#N)c1ccc(Cl)cc1)c1ccc(Cl)cc1 (configuration not stated)		> 100		> 100				> 100		> 100		> 100		> 100		> 100		> 100	> 100	
O=C(O)c1ccccc1/C=C1/Nc2ccccc2C1=O		> 100		> 100		> 100		> 100		> 100		> 100		> 100		> 100		> 100		
O=[P+](O)c1cc2c3ccccc3ccc2c2ccccc12		> 100		> 100						> 100		> 100		> 100		> 100		> 100	> 100	
COc1ccc(C(=O)C(CN(C)C)c2ccccc2)cc1 (configuration not stated)	12.6	32.4	18.1	96.3	2.75	9.01	2.39	10.7	1.42	2.89	3.56	12.1	2.18	5.74	2.26	4.21	2.17	4.86		
Nc1ccc(C(=O)N/C(=C\c2ccc3c(c2)OCO3)c2nc3ccc4c(c3[nH]2)C(=O)c2ccccc2C4=O)cc1		> 100		79.3				> 100		> 100		> 100		> 100		> 100		> 100	71.9	
CC(C)C(NCc1c2ccccc2nc2ccccc12)C(=O)O (configuration not stated)		> 100		> 100				> 100		> 100		> 100		> 100		> 100		> 100	91.2	
Cc1ccc(/C=C2\CN(C(=O)CCN3CCC(=NO)CC3)C/C(=C\c3ccc(C)cc3)C2=O)cc1			2.43	7.68													1.92	4.7		
COc1cc2ccc(C(=O)O)cc2cc1OC		> 100		> 100				> 100		> 100		> 100		> 100		> 100		> 100	> 100	
C=C1C(=O)O[C@H]2[C@H]1CC/C(COC(=O)c1ccc(Br)cc1)=C\CC[C@@]1(C)O[C@@H]21	1.67	3.57	1.96	4.56			1.65	3.35	1.02	2.24	1.63	3.69	1.27	2.83	1.79	3.51	1.55	3.14	2.8	1.33
NC(=O)COc1ccc(Br)cc1Br		> 100		> 100				> 100		> 100		> 100		> 100		> 100		> 100	> 100	
O=C(/C=C/c1ccc(OCCCOc2ccc(/C=C/C(=O)c3ccc(Cl)cc3)cc2)cc1)c1ccc(Cl)cc1		> 100		> 100				> 100		> 100		> 100		> 100		> 100		> 100	> 100	
CC(C)=CCCC1(C)C=Cc2c(ccc3c2[nH]c2cc(O)c(C)cc23)O1 (configuration not stated)			6.59	17.5						9.07	4.63	8.24		> 2.5		> 2.5	5.06	10.2	7.2	3.87
CCc1cc2c(c3[nH]ccc13)[C@@H](C)C[C@H]2C		35.2		42.2				39.9		37.1		29.8		36.2		38.1			31.9	
COC(=O)C1=C(c2cc(OC)c(OC)c(OC)c2)OC(c2cc(OC)c(OC)c(OC)c2)C1 (configuration not stated)		51.1		> 100				51.5		48.6		55.1		46		33		> 100		
CC(C)N(C(=O)C12C3C4C5C3C1(C(=O)N(C(C)C)C(C)C)C5C42)C(C)C (configuration not stated)		> 100		> 100				> 100		> 100		> 100		> 100		> 60.6		> 100	> 100	
CC(C)S(=O)(=O)ON1C(=O)c2ccc([N+](=O)[O-])cc2C1=O		> 100		> 100				> 100		> 100		> 100		> 100		> 100		> 100	> 100	
CC(=O)[O-].CC(=O)[O-].CC(=O)[O-].CC(=O)[O-].CO.CO.CO.[Rh+2].[Rh+2].c1ccc(-c2ccccn2)nc1	> 100	> 100	> 100	> 100			> 100	> 100	> 100	> 100	> 100	> 100	> 100	> 100	> 100	> 100	> 100	> 100		
CCOc1c(Cc2ccccc2)c(=O)n2c3ccccc3n3c(=O)n(C)c(=O)c1c23		> 100		> 100				> 100		> 100		> 100		> 100		> 100		> 100		
O=C1/C(=C/c2ccccc2)CN(C(=O)Oc2ccccc2)C/C1=C\c1ccccc1		34.1		> 100				> 100		> 100		> 100		83.2		> 100		> 100	> 100	
